In US20150224169A1, “COMPOUNDS AND METHODS FOR SELECTIVELY TARGETING CANCER STEM CELLS” (McMaster University, priority 2012, published 2015):
Read-outs that look alike come from different tables or passages of the source.

Experiments:
[1] = tested on: variant neoplastic stem cells (v1O4) relative to normal stem cells (H9); test: Selective-activity dose-response screening assay (cell counts, v1O4 versus H9); type: cell-based, human; details: dose-response curves FIG. 3B
Experimental: Briefly, variant neoplastic stem cells (v1O4) cells were seeded into Matrigel-coated 96 well plates (5000 cells/well) containing mouse embryonic fibroblast conditioned media (MEFCM) supplemented with 8 ng/mL bFGF, and treated for 72 hours with compounds dissolved in DMSO. The final concentration of each compound used in treatment was either 10 μM or 1 μM (n=3). Control wells were treated with 0.1% DMSO (low control) or 100 ng/ml BMP4 (high control to induce LOP). At the end of 72 hours, cells were fixed, stained with Hoechst and imaged by automated microscopy. GFP intensity and Hoechst signal were quantified as measures of LOP and cell count, respectively, and compounds with a Z-score of more than 3 standard deviations from the mean for reduced cell count and LOP were chosen as hits.
In the second stage also shown in FIG. 1, 8- or 10-point dilutions for each compound were tested on variant neoplastic stem cells (v1O4) and normal stem cells (H9 cells) cells to generate dose-response curves. […] Dose response data were fit with a 4-parameter Hill equation to derive EC50, slopes, min and max values using IDBS ActivityBase software. The EC50 values were then used to calculate a selective-activity potency ratio (H9 EC50/v1O4 EC50).

[2] = tested on: variant neoplastic stem cells; details: Sachlos et al., 2012; cited from earlier work
[3] = tested on: lineage-depleted human umbilical cord blood cells; test: Methylcellulose assay, CFU formation; type: cell-based; details: for Normal hematopoietic progenitor/stem cell proliferation activity (CFU-forming potential of cord blood cells): 0.1 μM, treated one day, 14 days in methylcellulose
Source text: (§1) Methylcellulose assays provide a functional and quantitative measure of hematopoietic progenitor/stem cell proliferation/clonogenic potential based on the formation of colony-forming units (CFUs) in vitro. Hematopoietic progenitor/stem cells from lineage-depleted human umbilical cord blood are capable of proliferation and differentiation to all blood lineages. AML blast cells from leukemia patients are myeloid progenitor cells blocked in differentiation that are sustained by a self-renewing leukemic stem cell(s). In this experiment, lineage-depleted cord blood cells and AML samples were each treated with Nystatin for one day and then cultured in methylcellulose for 14 days after which the numbers of CFUs were determined.
(§2) Cord blood and AML patient cells were seeded in 96-well plates at 500 cells and 25000 cells respectively in 50 μL medium containing StemSpan™ (Stemcell Technologies), 200 ng/mL stem cell factor (SCF, R&D Systems), 200 ng/mL Flt-3 (R&D Systems) and 40 ng/mL thrombopoietin (TPO, Stemcell Technologies). Then, 50 μL StemSpan containing 0.2 μM, 2 μM or 20 μM compounds was added to each well containing the cells. The cells were incubated for 24 hours at 37° C., after which the compound medium was removed from the wells and replaced with 50 μL medium containing StemSpan, 100 ng/mL SCF, 100 ng/mL Flt-3 and 20 ng/mL TPO. The cells from each well were mixed with 500 μL Methocult™ (Stemcell Technologies, H4434), and seeded into 12-well plates. The samples were imaged and scored after 14 days of incubation at 37° C.

AML patient cells = type: cell-based, human; details: for Ability of AML cells to form CFUs / Selectivity ratio of total CFUs from cord blood cells versus blast CFUs from AML samples: 0.1 μM; for Ability of AML cells to form CFUs / CFU forming potential of AML cells: treated one day, 14 days in methylcellulose; for Selectivity ratio of total CFUs from cord blood cells versus blast CFUs from AML samples: normalized to 0.1% DMSO control, ratio greater than 1 = selective for AML
Source text: as §1, §2

[4] = higher concentrations (above 0.1 μM)

| Structure (SMILES) | Selectivity for cancer stem cells based on a single 10 μM concentration point [1] | Normal hematopoietic progenitor/stem cell proliferation activity (CFU-forming potential of cord blood cells) [3] | Ability of AML cells to form CFUs (AML patient cells) | Selectivity ratio of total CFUs from cord blood cells versus blast CFUs from AML samples (AML patient cells) | other results |
| --- | --- | --- | --- | --- | --- |
| Nc1nc(O)c2[nH]nnc2n1 [Azaguanine-8] | would have not have been considered selective |  |  |  |  |
| CS(=O)(=O)O.Cn1cc(C2=C(c3cn(CCCSC(=N)N)c4ccccc34)C(=O)NC2=O)c2ccccc21 [Ro 31-8220 mesylate] | would have not have been considered selective |  |  |  |  |
| CSc1ccc2c(c1)N(CCC1CCCCN1C)c1ccccc1S2 (centres unmarked) [Thioridazine] |  |  |  |  | Action on variant neoplastic stem cells [2]: inducing differentiation through a loss of pluripotency |
| CCCCc1ccc2[nH]c(NC(=O)OC)nc2c1 [Parbendazole] | would have not have been considered selective |  |  |  |  |
| C[C@@H]1[C@H](O)[C@@H](C)/C=C/C=C/CC/C=C/C=C/C=C/C=C/C(O[C@H]2O[C@H](C)[C@@H](O)[C@H](N)[C@@H]2O)CC2O[C@](O)(CC(O)C(O)CCC(O)CC(O)CC(O)CC(=O)O[C@H]1C)CC(O)C2C(=O)O (some centres unmarked) [Nystatin] |  | little effect | reduced the ability of AML cells to form CFUs | 1.5 | CFU forming potential of AML cells (AML patient cells; 1 μM): no effect; CFU forming potential of AML cells (AML patient cells; 10 μM): no effect |
| Nc1ccn([C@@H]2O[C@H](CO)[C@@H](O)[C@@H]2O)c(=O)n1 [AraC, cytarabine] |  | also affected the CFU-forming potential of cord blood cells | reduced the ability of AML samples to form CFUs | no statistically significant difference | Toxicity to cord blood cells in methylcellulose assay [3, 4]: toxic; Toxicity to AML cells in methylcellulose assay (AML patient cells; [4]): toxic |
